Data reported in US12077503B2, “Substituted cyclic amides and their use as herbicides” (FMC CORPORATION, priority 2015, dated 2024).

Key:
Type in all cases: in vivo
[1] = tested on: ragweed (common ragweed, Ambrosia elatior); assay: Test A postemergence; conditions: Ambrosia artemisiifolia, post-emergence, 240 h, Postemergence
Method in brief: (§1)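 In a loam soil and sand blend, planted seeds got a preemergence directed soil spray, and young plants at the one- to two-leaf stage, 2–10 cm high, got a postemergence application; ~10 d greenhouse hold; injury rated visually, 0 = none, 100 = complete control.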

Kochia (Kochia scoparia) [2] = assay: Test A postemergence; conditions: Bassia scoparia, post-emergence, 240 h, Postemergence
Method in brief: as §1

[3] = tested on: Galium (catchweed bedstraw, Galium aparine); assay: Test A postemergence; conditions: Galium, post-emergence, 240 h, Postemergence
Method in brief: as §1

corn (Zea mays) = assay: Test A postemergence; conditions: Zea mays, post-emergence, 240 h, Postemergence
Method in brief: as §1

[4] = tested on: ryegrass, Italian (Italian ryegrass, Lolium multiflorum); assay: Test A postemergence; conditions: Lolium multiflorum, post-emergence, 240 h, Postemergence
Method in brief: as §1

[5] = tested on: pigweed (Amaranthus retroflexus); assay: Test A postemergence; conditions: Amaranthus retroflexus, post-emergence, 240 h, Postemergence
Method in brief: as §1

[6] = tested on: giant foxtail (Setaria faberii); assay: Test A postemergence; conditions: Setaria faberi, post-emergence, 240 h, Postemergence
Method in brief: as §1

[7] = tested on: wheat (Triticum aestivum); assay: Test A postemergence; conditions: Triticum aestivum, post-emergence, 240 h, Postemergence
Method in brief: as §1

[8] = tested on: barnyardgrass (Echinochloa crus-galli); assay: Test A preemergence; conditions: Echinochloa crus-galli, pre-emergence, 240 h
Method in brief: as §1

[9] = tested on: ragweed (common ragweed, Ambrosia elatior); assay: Test A preemergence; conditions: Ambrosia artemisiifolia, pre-emergence, 240 h, 500 g ai/ha, preemergence; 0 to 100 scale where 0 is no effect and 100 is complete control; read-out: Ragweed plant response rating
Method in brief: as §1

Kochia (Kochia scoparia) [10] = assay: Test A preemergence; conditions: Bassia scoparia, pre-emergence, 240 h
Method in brief: as §1

[11] = tested on: ryegrass, Italian (Italian ryegrass, Lolium multiflorum); assay: Test A preemergence; conditions: Lolium multiflorum, pre-emergence, 240 h, Preemergence, 125 g ai/ha; 0 to 100 scale (0 no effect, 100 complete control); read-out: Plant response rating, Ryegrass, Italian
Method in brief: as §1

[12] = tested on: pigweed (Amaranthus retroflexus); assay: Test A preemergence; conditions: Amaranthus retroflexus, pre-emergence, 240 h
[13] = tested on: giant foxtail (Setaria faberii); assay: Test A preemergence; conditions: Setaria faberi, pre-emergence, 240 h
Method in brief: as §1

Cc1cc([C@H]2CN(C)C(=O)[C@@H]2C(=O)Nc2cccc(F)c2C)ccc1F [Compound 1311]
pest or weed control at 125 g/ha ([1]; 125 g ai/ha, visual rating about 10 d after treatment, read-out: Ragweed plant response rating (0 to 100 scale)): 0% | pest or weed control at 500 g/ha ([1]; 500 g ai/ha, visual injury, 0 to 100 scale (0 no effect, 100 complete control), approx. 10 d, read-out: Plant response rating, Ragweed): 30% | pest or weed control at 125 g/ha (Kochia (Kochia scoparia) [2]; 125 g ai/ha, visual rating about 10 d after treatment, read-out: Kochia plant response rating (0 to 100 scale)): 30% | pest or weed control at 500 g/ha (Kochia (Kochia scoparia) [2]; 500 g ai/ha, visual injury, 0 to 100 scale (0 no effect, 100 complete control), approx. 10 d, read-out: Plant response rating, Kochia): 50% | pest or weed control at 125 g/ha ([3]; 125 g ai/ha, visual rating about 10 d after treatment, read-out: Galium plant response rating (0 to 100 scale)): 50% | pest or weed control at 500 g/ha ([3]; 500 g ai/ha, visual injury, 0 to 100 scale (0 no effect, 100 complete control), approx. 10 d, read-out: Plant response rating, Galium): 60% | plant injury at 125 g/ha (corn (Zea mays); 125 g ai/ha, visual rating about 10 d after treatment, read-out: Corn plant response rating (0 to 100 scale)): 70% | Corn plant response rating (crop injury, 0 = no effect, 100 = complete kill) at 500 g/ha (corn (Zea mays); 500 g ai/ha, visual injury, 0 to 100 scale (0 no effect, 100 complete control), approx. 10 d): 80% | pest or weed control at 125 g/ha ([4]; 125 g ai/ha, visual rating about 10 d after treatment, read-out: Ryegrass, Italian plant response rating (0 to 100 scale)): 40% | pest or weed control at 500 g/ha ([4]; 500 g ai/ha, visual injury, 0 to 100 scale (0 no effect, 100 complete control), approx. 10 d, read-out: Plant response rating, Ryegrass, Italian): 80% | pest or weed control at 125 g/ha ([5]; 125 g ai/ha, visual rating about 10 d after treatment, read-out: Pigweed plant response rating (0 to 100 scale)): 0% | pest or weed control at 500 g/ha ([5]; 500 g ai/ha, visual injury, 0 to 100 scale (0 no effect, 100 complete control), approx. 10 d, read-out: Plant response rating, Pigweed): 20% | pest or weed control at 125 g/ha ([6]; 125 g ai/ha, visual rating about 10 d after treatment, read-out: Foxtail, Giant plant response rating (0 to 100 scale)): 90% | pest or weed control at 500 g/ha ([6]; 500 g ai/ha, visual injury, 0 to 100 scale (0 no effect, 100 complete control), approx. 10 d, read-out: Plant response rating, Foxtail, Giant): 90% | plant injury at 125 g/ha ([7]; 125 g ai/ha, visual rating about 10 d after treatment, read-out: Wheat plant response rating (0 to 100 scale)): 60% | plant injury at 500 g/ha ([7]; 500 g ai/ha, visual injury, 0 to 100 scale (0 no effect, 100 complete control), approx. 10 d, read-out: Plant response rating, Wheat): 80% | pest or weed control at 500 g/ha ([8]; 500 g ai/ha, preemergence, 0 to 100 scale where 0 is no effect and 100 is complete control, read-out: Barnyardgrass plant response rating): 100% | pest or weed control at 125 g/ha ([8]; Preemergence, 125 g ai/ha, 0 to 100 scale (0 no effect, 100 complete control), read-out: Plant response rating, Barnyardgrass): 100% | pest or weed control at 500 g/ha [9]: 90% | pest or weed control at 500 g/ha (Kochia (Kochia scoparia) [10]; 500 g ai/ha, preemergence, 0 to 100 scale where 0 is no effect and 100 is complete control, read-out: Kochia plant response rating): 100% | pest or weed control at 125 g/ha (Kochia (Kochia scoparia) [10]; Preemergence, 125 g ai/ha, 0 to 100 scale (0 no effect, 100 complete control), read-out: Plant response rating, Kochia): 70% | pest or weed control at 125 g/ha [11]: 70% | pest or weed control at 500 g/ha ([12]; 500 g ai/ha, preemergence, 0 to 100 scale where 0 is no effect and 100 is complete control, read-out: Pigweed plant response rating): 20% | pest or weed control at 125 g/ha ([12]; Preemergence, 125 g ai/ha, 0 to 100 scale (0 no effect, 100 complete control), read-out: Plant response rating, Pigweed): 0% | pest or weed control at 500 g/ha ([13]; 500 g ai/ha, preemergence, 0 to 100 scale where 0 is no effect and 100 is complete control, read-out: Foxtail, Giant plant response rating): 100% | pest or weed control at 125 g/ha ([13]; Preemergence, 125 g ai/ha, 0 to 100 scale (0 no effect, 100 complete control), read-out: Plant response rating, Foxtail, Giant): 100%
